Measured values published in US11903929B2, “Method for inhibiting dengue virus infection” (FLORIDA STATE UNIVERSITY RESEARCH FOUNDATION, INC., priority 2018, dated 2024).
Where two headings read alike, the source gives them in different places. Where a SMILES comes first, the peptide text is derived from it. [ ]: non-standard residue; d: D form. ξ: configuration not given here. ξLac(3-iPr) = CC(C)CC(O)C(=O)O; NMeV = CN[CH](C(=O)O)C(C)C; NMeA = CN[CH](C)C(=O)O; βAla = NCCC(=O)O

How the values were obtained:
dengue virus = experiment: Western blot analysis of viral protein levels in dengue virus-infected cells; assay type: cell-based
Protocol: These 19 compounds were further validated for antiviral activity by a Zika viral production assay and also by analyzing protein production via Western blot in dengue virus-infected cells. Human glioblastoma cells were treated with individual compounds for 1 hour prior to infection with Zika virus or dengue virus for 24 hours. After 24 hours, cellular lysate was harvested for Western blot analysis of viral protein levels (DENV infection), or supernatant collected and used to infect Vero cells in an infectious viral titer assay (ZIKV infection).

Zika virus = experiment: Zika viral production assay (infectious viral titer assay on Vero cells); assay type: cell-based; conditions: read-out: Anti-ZIKV activity IC50
[1] = 1 uM, SNB-19 human glioblastoma cells, compound 1 hour prior to infection, 24 hours infection, Western blot of viral protein
[2] = 10 uM, SNB-19 human glioblastoma cells, compound 1 hour prior to infection, 24 hours infection, Western blot of viral protein
[3] = Zika virus, human glioblastoma cells treated 1 hour prior to infection, 24 hours, supernatant titered on Vero cells, values in E-notation, unit inferred
[4] = Zika virus, human glioblastoma cells treated 1 hour prior to infection, 24 hours, supernatant titered on Vero cells, μM

Compound | Anti-DENV Activity at 1 uM (SNB-19 cells) (dengue virus; [1]) | Anti-DENV Activity at 10 uM (SNB-19 cells) (dengue virus; [2]) | IC50 (Zika virus; [3]) | also measured
CCCOc1ccc2nc(NC(=O)OC)[nH]c2c1 [NCGC00018238-09, methyl (6-propoxy-1H-benzo[d]imidazol-2 - yl)carbamate] | No | No | 0.000233 µM | –
COc1cc2c(c(OC)c1OC)-c1ccc(OC)c(=O)cc1[C@@H](NC(C)=O)CC2 [NCGC00025125-18, N-[(7S)-1,2,3,10-tetramethoxy-9-oxo-6,7-dihydro-5H-benzo[a]heptalen-7-yl]acetamide] | No | No | – | –
COc1ccccc1-c1nnc2sc(-c3ccc(N(C)C)cc3)nn12 [NCGC00071621-03, 4-(3-(2-methoxyphenyl)-[1,2,4]triazolo[3,4-b][1,3,4]thiadiazol-6-yl)-N,N-dimethylaniline] | – | – | – | Anti-DENV Activity at 1 uM (SNB-19 cells) (dengue virus; 1 uM): No; Anti-DENV Activity at 10 uM (SNB-19 cells) (dengue virus; 10 uM): No; IC50 (Zika virus; Zika virus, Vero): > 30 µM
O=C(Nc1cccnc1)c1cccs1 [NCGC00072088-02, N-(pyridin-3-yl)thiophene-2-carboxamide] | No | Yes | 2.35 µM | –
CCOc1ccc(N2C(=O)c3[nH]nc(-c4cccs4)c3C2c2cccc(F)c2)cc1 (centres unmarked) [NCGC00102779-01, 5-(4-ethoxyphenyl)-4-(3-fluorophenyl)-3-(thiophen-2-yl)-4,5-dihydropyrrolo[3,4-c]pyrazol-6(lH)-one] | No | No | 9.24 µM | –
COCCn1c(=O)[nH]c2cc(C(=O)NCc3ccccc3Cl)ccc2c1=O [NCGC00104879-01, N-(2-chlorobenzyl)-3-(2-methoxyethyl)-2,4-dioxo-1,2,3,4-tetrahydroquinazoline-7-carboxamide] | No | No | – | IC50 (Zika virus; [4]): > 30 µM
COc1cc(C2CC(=O)Nc3cc4c(cc32)OCCO4)cc(Br)c1OC (centres unmarked) [NCGC00107055-01, 9-(3-bromo-4,5-dimethoxyphenyl)-2,3,8,9-tetrahydro-[1,4]dioxino[2,3-g]quinolin-7(6H)-one] | No | No | 0.0285 µM | –
CCOC(=O)c1ccc(N2C(=O)c3[nH]nc(-c4ccc(OC)cc4)c3C2c2ccc(C)cc2)cc1 (centres unmarked) [NCGC00108525-01, ethyl 4-(3-(4-methoxyphenyl)-6-oxo-4-(p-tolyl)-4,6-dihydropyrrolo[3,4-c]pyrazol-5(1H)-yl)benzoate] | No | Yes | – | IC50 (Zika virus; Zika virus, Vero): 0.137 µM
CCOC(=O)c1ccc(N2C(=O)c3[nH]nc(-c4ccco4)c3C2c2ccc(C)cc2)cc1 (centres unmarked) [NCGC00108581-01, ethyl 4-(3-(furan-2-yl)-6-oxo-4-(p-tolyl)-4,6-dihydropyrrolo[3,4-c]pyrazol-5(1H)-yl)benzoate] | No | Yes | 2.42 µM | –
CC1=Nc2cc(C(=O)NCc3ccccc3Cl)ccc2Sc2c(C)ccc(C)c21 [NCGC00112058-01, N-(2-chlorobenzyl)-1,4,11-trimethyldibenzo[b,f][1,4]thiazepine-8-carboxamide] | No | No | – | IC50 (Zika virus; [4]): > 30 µM
COC(=O)c1cc2occc2n1Cc1nc(-c2ccc(C)cc2)oc1C [NCGC00113159-01, methyl 4-[[5-methyl-2-(4-methylphenyl)-1,3-oxazol-4-yl]methyl]furo[3,2-b]pyrrole-5 - carboxylate] | No | No | – | IC50 (Zika virus; [4]): > 30 µM
CC(C)(C)c1ccc(C(=O)Nc2ccc3c(c2)CCCN3C(=O)c2cccs2)cc1 [NCGC00131231-01, 4-(tert-butyl)-N-(1-(thiophene-2-carbonyl)-1,2,3,4-tetrahydroquinolin-6-yl)benzamide] | No | No | 7.6 µM | –
CCC(C)C1NC(=O)C2CCCN2C(=O)C(CC(C)C)OC(=O)CCNC(=O)C(C)N(C)C(=O)C(C(C)C)N(C)C1=O (centres unmarked) [NCGC00169957-03, 3-(sec-butyl)-16-isobutyl-6-isopropyl-5,8,9-trimethyldodecahydropyrrolo[1,2-d][l]oxa[4,7,10,13,16] pentaazacyclononadecine-1,4,7,10,14,17(11H,16H)-hexaone] (cyclo([ξLac(3-iPr)]PI[NMeV][NMeA][βAla]); configuration not given here) | – | – | – | Anti-DENV Activity at 1 uM (SNB-19 cells) (dengue virus; 1 uM): No; Anti-DENV Activity at 10 uM (SNB-19 cells) (dengue virus; 10 uM): Yes; IC50 (Zika virus; Zika virus, Vero): 0.613 µM
CC(=O)OC[C@]12CCC(C)=C[C@H]1O[C@@H]1[C@H](O)[C@@H](OC(C)=O)[C@@]2(C)[C@]12CO2 [NCGC00179895-03, ((2S,2′R,3′R,4′S,5′S,5a′R,9a′R)-4′-acetoxy-3′-hydroxy-5′,8′-dimethyl-2′,3′,4′,5′,7′,9a′-hexahydrospiro[oxirane-2,10′-[2,5]methanobenzo[b]oxepin]-5a′(6′H) - yl)methyl acetate] | – | – | – | Anti-DENV Activity at 1 uM (SNB-19 cells) (dengue virus): Yes; Anti-DENV Activity at 10 uM (SNB-19 cells) (dengue virus): Yes
O=c1nc[nH]c2c1ccn2C1OC(CO)C(O)C1O (centres unmarked) [NCGC00246910-02, 7-(3,4-dihydroxy-5-(hydroxymethyl)tetrahydrofuran-2-yl)-1,7-dihydro-4H-pyrrolo[2,3-d]pyrimidin-4-one] | No | Yes | 0.27 µM | –
O=c1[nH]c(=O)n(C2C[C@@H](O)[C@@H](CO)O2)cc1F (stereo partly drawn) [NCGC00263862-02, 5-fluoro-l-((4R,5R)-4-hydroxy-5-(hydroxymethyl)tetrahydrofuran-2-yl)pyrimidine-2,4(1H,3H)-dione] | No | No | 0.0165 µM | –
O=C1N[C@@H]2C(=C[C@H](O)[C@@H](O)[C@H]2O)c2cc3c(c(O)c21)OCO3 [NCGC00357393-02, (2S,3R,4S,4aR)-2,3,4,7-tetrahydroxy-3,4,4a,5-tetrahydro-[1,3]dioxolo[4,5-j] phenanthridin-6(2H)-one] | – | – | – | Anti-DENV Activity at 1 uM (SNB-19 cells) (dengue virus; 1 uM): Yes; Anti-DENV Activity at 10 uM (SNB-19 cells) (dengue virus; 10 uM): Yes; IC50 (Zika virus): 0.000674 µM
CC[C@H](C)[C@@H]([C@@H](CC(=O)N1CCC[C@H]1[C@H](OC)[C@@H](C)C(=O)N[C@@H](Cc1ccccc1)c1nccs1)OC)N(C)C(=O)[C@@H](NC(=O)[C@H](C(C)C)N(C)C)C(C)C [NCGC00378623-01, (S)-2-((S)-2-(dimethylamino)-3-methylbutanamido)-N-((3R,4S,5S)-3-methoxy-1-((S)-2-((1R,2R)-1-methoxy-2-methyl-3-oxo-3-(((S)-2-phenyl-1-(thiazol-2-yl)ethyl)amino)propyl)pyrrolidin-1-yl)-5-methyl-1-oxoheptan-4-yl)-N,3-dimethylbutanamide] | No | No | – | –
CC(=O)OC[C@]12C[C@H](OC(=O)CC(C)C)C(C)=C[C@H]1O[C@@H]1[C@H](O)[C@@H](OC(C)=O)[C@@]2(C)[C@]12CO2 [NCGC00387651-01, (2S,2′R,3′R,4′S,5′S,5a′R,7′S,9a′R)-4′-acetoxy-5a′-(acetoxymethyl)-3′-hydroxy-5′,8′-dimethyl-2′,3′,4′,5′,5a′,6′,7′,9a′-octahydrospiro[oxirane-2,10′-[2,5]methanobenzo[b]oxepin]-7′-yl 3 - methylbutanoate] | – | – | – | Anti-DENV Activity at 1 uM (SNB-19 cells) (dengue virus): Yes; Anti-DENV Activity at 10 uM (SNB-19 cells) (dengue virus): Yes
